Assay results as given in patent publication US12077503B2, “Substituted cyclic amides and their use as herbicides” (FMC CORPORATION, priority 2015, dated 2024).

How the values were obtained:
Assay in all cases: Test C preemergence
Type in all cases: in vivo
[1] = system: Galium (catchweed bedstraw, Galium aparine); settings: for Plant response rating, Galium: scale 0 to 100, 0 no effect, 100 complete control
How it was run: (§1)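 After treatment with surfactant-containing formulations, either preemergence to seeds in loam-sand soil or postemergence to potted seedlings at 2–18 cm, plants were kept 13–15 d in a greenhouse. Observers then compared them with controls and assigned ratings, 0 signifying no effect and 100 complete control.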

[2] = system: barnyardgrass (Echinochloa crus-galli); settings: for Plant response rating, Barnyardgrass: scale 0 to 100, 0 no effect, 100 complete control
How it was run: as §1

[3] = system: blackgrass (Alopecurus myosuroides); settings: for Plant response rating, Blackgrass: scale 0 to 100, 0 no effect, 100 complete control
How it was run: as §1

corn (Zea mays) = settings: for Plant response rating, Corn: scale 0 to 100, 0 no effect, 100 complete control
How it was run: as §1

[4] = system: crabgrass, large (large crabgrass, Digitaria sanguinalis); settings: for Plant response rating, Crabgrass, Large: scale 0 to 100, 0 no effect, 100 complete control
How it was run: as §1

[5] = system: foxtail, giant (giant foxtail, Setaria faberii); settings: for Plant response rating, Foxtail, Giant: scale 0 to 100, 0 no effect, 100 complete control
How it was run: as §1

[6] = system: lambsquarters (Chenopodium album); settings: for Plant response rating, Lambsquarters: scale 0 to 100, 0 no effect, 100 complete control
How it was run: as §1

[7] = system: morningglory (Ipomoea coccinea); settings: for Plant response rating, Morningglory: scale 0 to 100, 0 no effect, 100 complete control
How it was run: as §1

[8] = system: nutsedge, yellow (yellow nutsedge, Cyperus esculentus); settings: for Plant response rating, Nutsedge, Yellow: scale 0 to 100, 0 no effect, 100 complete control
How it was run: as §1

[9] = system: oilseed rape (Brassica napus); settings: for Plant response rating, Oilseed Rape: scale 0 to 100, 0 no effect, 100 complete control
How it was run: as §1

[10] = system: pigweed (Amaranthus retroflexus); settings: for Plant response rating, Pigweed: scale 0 to 100, 0 no effect, 100 complete control
How it was run: as §1

[11] = system: ragweed (common ragweed, Ambrosia elatior); settings: for Plant response rating, Ragweed: scale 0 to 100, 0 no effect, 100 complete control
How it was run: as §1

[12] = system: ryegrass, Italian (Italian ryegrass, Lolium multiflorum); settings: for Plant response rating, Ryegrass, Italian: scale 0 to 100, 0 no effect, 100 complete control
How it was run: as §1

soybean (Glycine max) = settings: for Plant response rating, Soybean: scale 0 to 100, 0 no effect, 100 complete control
How it was run: as §1

[13] = system: velvetleaf (Abutilon theophrasti); settings: for Plant response rating, Velvetleaf: scale 0 to 100, 0 no effect, 100 complete control
How it was run: as §1

[14] = system: waterhemp (common waterhemp, Amaranthus rudis); settings: for Plant response rating, Waterhemp: scale 0 to 100, 0 no effect, 100 complete control
How it was run: as §1

[15] = system: wheat (winter wheat, Triticum aestivum); settings: for Plant response rating, Wheat: scale 0 to 100, 0 no effect, 100 complete control
How it was run: as §1

[16] = 31 g ai/ha, 0 is no effect, 100 is complete control

CN1CC(c2ccc(C(F)(F)F)cc2)C(C(=S)Nc2ccccc2F)C1=O (centres unmarked) [Compound 450]
80: Plant response rating, Pigweed ([10]; 125 g ai/ha) | Plant response rating, Pigweed ([10]; 250 g ai/ha)
85: Plant response rating, Waterhemp ([14]; 250 g ai/ha)
60: Plant response rating, Blackgrass ([3]; 250 g ai/ha) | Plant response rating, Oilseed Rape ([9]; 250 g ai/ha) | Plant response rating, Pigweed ([10]; 62 g ai/ha) | Plant response rating, Ragweed ([11]; 250 g ai/ha) | Plant response rating, Waterhemp ([14]; 62 g ai/ha) | Plant response rating, Wheat ([15]; 250 g ai/ha)
45: Plant response rating, Blackgrass ([3]; 125 g ai/ha)
90: Plant response rating, Galium ([1]; 62 g ai/ha) | Plant response rating, Galium ([1]; 125 g ai/ha) | Plant response rating, Barnyardgrass ([2]; 31 g ai/ha) | Plant response rating, Barnyardgrass ([2]; 62 g ai/ha) | Plant response rating, Barnyardgrass ([2]; 125 g ai/ha) | Plant response rating, Crabgrass, Large ([4]; 31 g ai/ha) | Plant response rating, Crabgrass, Large ([4]; 62 g ai/ha) | Plant response rating, Crabgrass, Large ([4]; 125 g ai/ha) | Plant response rating, Foxtail, Giant ([5]; 31 g ai/ha) | Plant response rating, Foxtail, Giant ([5]; 62 g ai/ha) | Plant response rating, Foxtail, Giant ([5]; 125 g ai/ha)
30: Plant response rating, Oilseed Rape ([9]; 31 g ai/ha) | Plant response rating, Oilseed Rape ([9]; 62 g ai/ha) | Plant response rating, Ryegrass, Italian ([12]; 250 g ai/ha) | Plant response rating, Wheat ([15]; 62 g ai/ha)
10: Plant response rating, Morningglory ([7]; 250 g ai/ha) | Plant response rating, Ragweed ([11]; 62 g ai/ha) | Plant response rating, Velvetleaf ([13]; 125 g ai/ha)
40: Plant response rating, Wheat ([15]; 125 g ai/ha)
65: Plant response rating, Corn (corn (Zea mays); 250 g ai/ha) | Plant response rating, Lambsquarters ([6]; 125 g ai/ha) | Plant response rating, Lambsquarters ([6]; 250 g ai/ha)
95: Plant response rating, Galium ([1]; 250 g ai/ha) | Plant response rating, Barnyardgrass ([2]; 250 g ai/ha) | Plant response rating, Crabgrass, Large ([4]; 250 g ai/ha) | Plant response rating, Foxtail, Giant ([5]; 250 g ai/ha)
0: Plant response rating, Blackgrass ([3]; 31 g ai/ha) | Plant response rating, Blackgrass ([3]; 62 g ai/ha) | Plant response rating, Morningglory ([7]; 31 g ai/ha) | Plant response rating, Morningglory ([7]; 62 g ai/ha) | Plant response rating, Nutsedge, Yellow ([8]; 31 g ai/ha) | Plant response rating, Nutsedge, Yellow ([8]; 62 g ai/ha) | Plant response rating, Nutsedge, Yellow ([8]; 125 g ai/ha) | Plant response rating, Nutsedge, Yellow ([8]; 250 g ai/ha) | Plant response rating, Ryegrass, Italian ([12]; 62 g ai/ha) | Plant response rating, Ryegrass, Italian ([12]; 125 g ai/ha) | Plant response rating, Soybean (soybean (Glycine max); 125 g ai/ha) | Plant response rating, Soybean (soybean (Glycine max); 250 g ai/ha) | Plant response rating, Velvetleaf ([13]; 62 g ai/ha)
75: Plant response rating, Waterhemp ([14]; 125 g ai/ha)
50: Plant response rating, Galium ([1]; 31 g ai/ha) | Plant response rating, Lambsquarters ([6]; 62 g ai/ha) | Plant response rating, Velvetleaf ([13]; 250 g ai/ha)
20: Plant response rating, Corn (corn (Zea mays); 125 g ai/ha) | Plant response rating, Morningglory ([7]; 125 g ai/ha) | Plant response rating, Oilseed Rape ([9]; 125 g ai/ha) | Plant response rating, Ragweed ([11]; 125 g ai/ha)
5: Plant response rating, Corn (corn (Zea mays); 31 g ai/ha) | Plant response rating, Corn (corn (Zea mays); 62 g ai/ha) | Plant response rating, Ragweed ([11]; 31 g ai/ha) | Plant response rating, Soybean (soybean (Glycine max); 62 g ai/ha)
55: Plant response rating, Lambsquarters ([6]; 31 g ai/ha) | Plant response rating, Pigweed ([10]; 31 g ai/ha)

CN1CC(c2cccc(OC(F)F)c2)C(C(=O)Nc2ccccc2F)C1=O (centres unmarked) [Compound 618]
85: Plant response rating, Galium ([1]; 125 g ai/ha) | Plant response rating, Corn (corn (Zea mays); 250 g ai/ha) | Plant response rating, Oilseed Rape ([9]; 62 g ai/ha) | Plant response rating, Waterhemp ([14]; 250 g ai/ha)
55: Plant response rating, Ryegrass, Italian ([12]; 250 g ai/ha) | Plant response rating, Velvetleaf ([13]; 125 g ai/ha)
75: Plant response rating, Corn (corn (Zea mays); 125 g ai/ha) | Plant response rating, Lambsquarters ([6]; 250 g ai/ha) | Plant response rating, Pigweed ([10]; 250 g ai/ha) | Plant response rating, Wheat ([15]; 125 g ai/ha)
95: Plant response rating (scale of 0 to 100), Barnyardgrass [2, 16] | Plant response rating, Barnyardgrass ([2]; 62 g ai/ha) | Plant response rating, Barnyardgrass ([2]; 125 g ai/ha) | Plant response rating, Foxtail, Giant ([5]; 250 g ai/ha)
40: Plant response rating (scale of 0 to 100), Pigweed [10, 16] | Plant response rating (scale of 0 to 100), Ragweed [11, 16] | Plant response rating, Ragweed ([11]; 62 g ai/ha)
70: Plant response rating, Lambsquarters ([6]; 125 g ai/ha)
100: Plant response rating (scale of 0 to 100), Crabgrass, Large [4, 16] | Plant response rating, Crabgrass, Large ([4]; 62 g ai/ha) | Plant response rating, Crabgrass, Large ([4]; 125 g ai/ha) | Plant response rating, Crabgrass, Large ([4]; 250 g ai/ha)
0: Plant response rating (scale of 0 to 100), Galium [1, 16] | Plant response rating, Galium ([1]; 62 g ai/ha) | Plant response rating (scale of 0 to 100), Blackgrass [3, 16] | Plant response rating (scale of 0 to 100), Morningglory [7, 16] | Plant response rating, Morningglory ([7]; 62 g ai/ha) | Plant response rating (scale of 0 to 100), Nutsedge, Yellow [8, 16] | Plant response rating, Nutsedge, Yellow ([8]; 62 g ai/ha) | Plant response rating, Nutsedge, Yellow ([8]; 125 g ai/ha) | Plant response rating (scale of 0 to 100), Soybean (soybean (Glycine max); [16]) | Plant response rating, Soybean (soybean (Glycine max); 125 g ai/ha) | Plant response rating, Soybean (soybean (Glycine max); 250 g ai/ha) | Plant response rating (scale of 0 to 100), Velvetleaf [13, 16]
50: Plant response rating, Corn (corn (Zea mays); 62 g ai/ha) | Plant response rating (scale of 0 to 100), Lambsquarters [6, 16] | Plant response rating, Lambsquarters ([6]; 62 g ai/ha) | Plant response rating, Ryegrass, Italian ([12]; 62 g ai/ha)
10: Plant response rating, Blackgrass ([3]; 62 g ai/ha) | Plant response rating, Morningglory ([7]; 125 g ai/ha) | Plant response rating, Nutsedge, Yellow ([8]; 250 g ai/ha) | Plant response rating, Soybean (soybean (Glycine max); 62 g ai/ha)
45: Plant response rating (scale of 0 to 100), Ryegrass, Italian [12, 16] | Plant response rating, Ryegrass, Italian ([12]; 125 g ai/ha)
98: Plant response rating, Barnyardgrass ([2]; 250 g ai/ha)
5: Plant response rating, Morningglory ([7]; 250 g ai/ha) | Plant response rating, Velvetleaf ([13]; 62 g ai/ha)
90: Plant response rating, Galium ([1]; 250 g ai/ha) | Plant response rating (scale of 0 to 100), Foxtail, Giant [5, 16] | Plant response rating, Foxtail, Giant ([5]; 62 g ai/ha) | Plant response rating, Foxtail, Giant ([5]; 125 g ai/ha) | Plant response rating, Oilseed Rape ([9]; 125 g ai/ha) | Plant response rating, Oilseed Rape ([9]; 250 g ai/ha)
80: Plant response rating, Blackgrass ([3]; 250 g ai/ha) | Plant response rating, Ragweed ([11]; 250 g ai/ha) | Plant response rating, Wheat ([15]; 250 g ai/ha)
30: Plant response rating (scale of 0 to 100), Corn (corn (Zea mays); [16]) | Plant response rating, Wheat ([15]; 62 g ai/ha)
60: Plant response rating, Blackgrass ([3]; 125 g ai/ha) | Plant response rating (scale of 0 to 100), Oilseed Rape [9, 16] | Plant response rating, Pigweed ([10]; 62 g ai/ha) | Plant response rating, Pigweed ([10]; 125 g ai/ha) | Plant response rating, Velvetleaf ([13]; 250 g ai/ha) | Plant response rating (scale of 0 to 100), Waterhemp [14, 16] | Plant response rating, Waterhemp ([14]; 62 g ai/ha)
20: Plant response rating (scale of 0 to 100), Wheat [15, 16]
65: Plant response rating, Ragweed ([11]; 125 g ai/ha) | Plant response rating, Waterhemp ([14]; 125 g ai/ha)
